Reference: patent US9512128B2 (BAYER CROPSCIENCE AG, priority 2012, dated 2016)

Tested on: not listed separately
Assay: log P by HPLC on reversed-phase columns (C 18), EEC directive 79/831 Annex V.A8
Type: physicochemical
Conditions: acidic range, pH 2.7, 0.1% aqueous formic acid / acetonitrile; read-out: log P[a]
Experimental: The log P values were determined according to EEC directive 79/831 Annex V.A8 by HPLC (High Performance Liquid Chromatography) on reversed-phase columns (C 18), using the methods below:
[a] The LC-MS determination in the acidic range is carried out at pH 2.7 with 0.1% aqueous formic acid and acetonitrile (contains 0.1% formic acid) as mobile phases; linear gradient from 10% acetonitrile to 95% acetonitrile.
[b] The LC-MS determination in the neutral range is carried out at pH 7.8 using the mobile phases 0.001 molar aqueous ammonium bicarbonate solution and acetonitrile; linear gradient from 10% acetonitrile to 95% acetonitrile.

SMILES	chromatographic logP
O=[N+]([O-])c1ccc(Cl)c(SSc2cc([N+](=O)[O-])ccc2Cl)c1 [XIX-3, 1,1′-Disulphanediylbis(2-chloro-5-nitrobenzene)]	5.03
O=[N+]([O-])c1cc(SSc2ccc(F)c([N+](=O)[O-])c2)ccc1F [XIX-5, 1,1′-Disulphanediylbis(4-fluoro-3-nitrobenzene)]	3.83
O=[N+]([O-])c1cc(SSc2cc([N+](=O)[O-])c(Cl)cc2Cl)c(Cl)cc1Cl [XIX-6, 1,1′-Disulphanediylbis(2,4-dichloro-5-nitrobenzene)]	5.69

Same assay, conditions: neutral range, pH 7.8, 0.001 molar aqueous ammonium bicarbonate / acetonitrile; read-out: log P[b]

SMILES	chromatographic logP
O=[N+]([O-])c1ccc(Cl)c(SSc2cc([N+](=O)[O-])ccc2Cl)c1 [XIX-3, 1,1′-Disulphanediylbis(2-chloro-5-nitrobenzene)]	5.01
O=[N+]([O-])c1cc(SSc2ccc(F)c([N+](=O)[O-])c2)ccc1F [XIX-5, 1,1′-Disulphanediylbis(4-fluoro-3-nitrobenzene)]	3.79
O=[N+]([O-])c1cc(SSc2cc([N+](=O)[O-])c(Cl)cc2Cl)c(Cl)cc1Cl [XIX-6, 1,1′-Disulphanediylbis(2,4-dichloro-5-nitrobenzene)]	5.64

Same assay, conditions: pH 2.7, log P[a]

SMILES	chromatographic logP
O=[N+]([O-])c1cc(SSc2ccc(Cl)c([N+](=O)[O-])c2)ccc1Cl [XIX-4, 1,1′-Disulphanediylbis(4-chloro-3-nitrobenzene)]	4.58

Same assay, conditions: pH 7.8, log P[b]

SMILES	chromatographic logP
O=[N+]([O-])c1cc(SSc2ccc(Cl)c([N+](=O)[O-])c2)ccc1Cl [XIX-4, 1,1′-Disulphanediylbis(4-chloro-3-nitrobenzene)]	4.58

Same assay, conditions: reversed-phase C18 HPLC column, pH 2.7, acidic range, pH 2.7, 0.1% aqueous formic acid / acetonitrile; read-out: log P[a]

SMILES	chromatographic logP
Cc1cc(F)c(N)cc1S [XVI-1, 5-Amino-4-fluoro-2-methylbenzenethiol]	3.7
Nc1ccc(Cl)c(S)c1 [XVI-3, 5-Amino-2-chlorobenzenethiol]	1.64
CC(=O)Nc1cc(SC(C)=O)c(C)cc1F [XVII-1, S-(5-Acetamido-4-fluoro-2-methylphenyl)ethanethioate]	1.78
Nc1ccc(Cl)c(SSc2cc(N)ccc2Cl)c1 [XVIII-3, 3,3′-Disulphanediylbis(4-chloroaniline)]	3.31
Nc1cc(SSc2ccc(Cl)c(N)c2)ccc1Cl [XVIII-4, 3,3′-Disulphanediylbis(6-chloroaniline)]	3.84
Nc1cc(SSc2ccc(F)c(N)c2)ccc1F [XVIII-5, 3,3′-Disulphanediylbis(6-fluoroaniline)]	2.98
Nc1cc(SSc2cc(N)c(Cl)cc2Cl)c(Cl)cc1Cl [XVIII-6, 3,3′-Disulphanediylbis(4,6-dichloroaniline)]	5.14

Same assay, conditions: reversed-phase C18 HPLC column, pH 7.8, neutral range, pH 7.8, 0.001 molar aqueous ammonium bicarbonate / acetonitrile; read-out: log P[b]

SMILES	chromatographic logP
Nc1ccc(Cl)c(SSc2cc(N)ccc2Cl)c1 [XVIII-3, 3,3′-Disulphanediylbis(4-chloroaniline)]	3.35
Nc1cc(SSc2ccc(Cl)c(N)c2)ccc1Cl [XVIII-4, 3,3′-Disulphanediylbis(6-chloroaniline)]	3.83
Nc1cc(SSc2ccc(F)c(N)c2)ccc1F [XVIII-5, 3,3′-Disulphanediylbis(6-fluoroaniline)]	2.97
Nc1cc(SSc2cc(N)c(Cl)cc2Cl)c(Cl)cc1Cl [XVIII-6, 3,3′-Disulphanediylbis(4,6-dichloroaniline)]	4.95

Tested on: greenhouse red spider mite (Tetranychus urticae)
Assay: Tetranychus urticae spray test, OP-resistant (TETRUR)
Type: in vivo
Conditions: application rate 100 g/ha, after 6 days, bean leaf discs
Experimental: 4. Tetranychus urticae Spray Test, OP-Resistant (TETRUR)
• Solvents: 78.0 parts by weight of acetone • 1.5 part by weight of dimethylformamide • Emulsifier: 0.5 part by weight of alkylaryl polyglycol ether
To produce a suitable preparation of active compound, 1 part by weight of active compound is mixed with the stated amounts of solvents and emulsifier, and the concentrate is diluted with emulsifier-containing water to the desired concentration.
Discs of bean leaves (Phaseolus vulgaris) which are infested by all stages of the greenhouse red spider mite (Tetranychus urticae) are sprayed with an active compound preparation of the desired concentration.
After 6 days, the efficacy in % is determined. 100% means that all of the spider mites have been killed; 0% means that none of the spider mites have been killed.

SMILES	efficacy in % (spider mites killed)
Cc1cc(F)c(-n2c(C)nc3nn(C)cc3c2=O)cc1SCC(F)(F)F [Compound 174]	90%

Same assay, conditions: application rate 500 g/ha, after 6 days, bean leaf discs

SMILES	efficacy in % (spider mites killed)
CCn1ncc2c(=O)n(-c3cc([S+]([O-])CC(F)(F)F)c(C)cc3F)cnc21 (stereo not drawn) [Compound 126]	90%
CCn1ncc2c(=O)n(-c3cc([S+]([O-])CC(F)(F)F)c(C)cc3F)c(C)nc21 (stereo not drawn) [Compound 127]	100%
Cc1cc(F)c(-n2cnc3c(C)nn(C)c3c2=O)cc1SCC(F)(F)F [Compound 128]	100%
Cc1cc(C)c(-n2cnc3cnn(C)c3c2=O)cc1SCC(F)(F)F [Compound 130]	100%
Cc1cc(C)c(-n2c(C)nc3cnn(C)c3c2=O)cc1SCC(F)(F)F [Compound 131]	90%
Cc1cc(C)c([S+]([O-])CC(F)(F)F)cc1-n1nnc2cnn(C)c2c1=O (stereo not drawn) [Compound 132]	100%
Cc1cc(C)c(-n2nnc3cnn(C)c3c2=O)cc1SCC(F)(F)F [Compound 133]	90%
Cc1cc(C)c([S+]([O-])CC(F)(F)F)cc1-n1c(C)nc2cnn(C)c2c1=O (stereo not drawn) [Compound 135]	90%
Cc1cc(F)c(-n2nnc3cnn(C)c3c2=O)cc1SCC(F)(F)F [Compound 137]	100%
Cc1ccc(-n2cnc3cnn(C)c3c2=O)cc1SCC(F)(F)F [Compound 138]	100%
Cc1cc(F)c(-n2c(C)nc3cnn(C)c3c2=O)cc1SCC(F)(F)F [Compound 139]	100%
Cn1ncc2ncn(-c3cc(SCC(F)(F)F)c(Cl)cc3Cl)c(=O)c21 [Compound 140]	100%
Cn1ncc2ncn(-c3cc([S+]([O-])CC(F)(F)F)c(Cl)cc3Cl)c(=O)c21 (stereo not drawn) [Compound 143]	100%
Cc1nc2cnn(C)c2c(=O)n1-c1cc(SCC(F)(F)F)c(Cl)cc1Cl [Compound 144]	90%
Cc1ccc(-n2c(C)nc3cnn(C)c3c2=O)cc1[S+]([O-])CC(F)(F)F (stereo not drawn) [Compound 145]	100%
Cn1ncc2nnn(-c3cc(SCC(F)(F)F)c(Cl)cc3F)c(=O)c21 [Compound 150]	100%
Cc1cc(Cl)c(-n2cnc3cnn(C)c3c2=O)cc1SCC(F)(F)F [Compound 151]	100%
Cc1cc(Cl)c(-n2c(C)nc3cnn(C)c3c2=O)cc1SCC(F)(F)F [Compound 152]	90%
Cc1cc(Cl)c(-n2nnc3cnn(C)c3c2=O)cc1SCC(F)(F)F [Compound 154]	90%
Cn1ncc2ncn(-c3cc([S+]([O-])CC(F)(F)F)c(Cl)cc3F)c(=O)c21 (stereo not drawn) [Compound 156]	100%
Cc1cc(Cl)c(-n2cnc3cnn(C)c3c2=O)cc1[S+]([O-])CC(F)(F)F (stereo not drawn) [Compound 158]	100%
Cc1cc(F)c(-n2c(C)nc3cnn(C(C)C)c3c2=O)cc1[S+]([O-])CC(F)(F)F (stereo not drawn) [Compound 166]	100%

SMILES	efficacy in % (spider mites killed)
Cc1cc(F)c(-n2cnc3nn(C)cc3c2=O)cc1SCC(F)(F)F [Compound 173]	90%
CCn1cc2c(=O)n(-c3cc(SCC(F)(F)F)c(C)cc3F)cnc2n1 [Compound 176]	90%
Cc1cc(F)c(-n2cnc3ncn(C)c3c2=O)cc1[S+]([O-])CC(F)(F)F (stereo not drawn) [Compound 178]	100%
Cc1cc(F)c(-n2cnc3c(ncn3C)c2=O)cc1[S+]([O-])CC(F)(F)F (stereo not drawn) [Compound 179]	100%
Cc1cc(F)c(-n2cnc3c(C)nsc3c2=O)cc1SCC(F)(F)F [Compound 180]	90%
Cc1nc2c(=O)n(-c3cc([S+]([O-])CC(F)(F)F)c(C)cc3F)c(C)nc2s1 (stereo not drawn) [Compound 185]	90%
Cc1nc2c(=O)n(-c3cc([S+]([O-])CC(F)(F)F)c(C)cc3C)c(C)nc2s1 (stereo not drawn) [Compound 186]	90%
Cc1nc2c(=O)n(-c3cc(SCC(F)(F)F)c(C)cc3F)cnc2s1 [Compound 189]	90%
Cc1nc2c(=O)n(-c3cc([S+]([O-])CC(F)(F)F)c(C)cc3F)cnc2s1 (stereo not drawn) [Compound 190]	90%
Cc1cc(F)c(-n2cnc3nsc(C(C)(C)C)c3c2=O)cc1[S+]([O-])CC(F)(F)F (stereo not drawn) [Compound 192]	90%
Cc1cc(F)c(-n2cnc3onc(C(C)C)c3c2=O)cc1SCC(F)(F)F [Compound 193]	100%
Cc1cc(F)c(-n2cnc3onc(C(F)(F)F)c3c2=O)cc1SCC(F)(F)F [Compound 197]	100%
CCc1nsc2ncn(-c3cc([S+]([O-])CC(F)(F)F)c(C)cc3F)c(=O)c12 (stereo not drawn) [Compound 203]	100%
Cc1cc(F)c(-n2cnc3c(C)n(C)nc3c2=O)cc1SCC(F)(F)F [Compound 213]	100%
Cc1cc(F)c(-n2cnc3c(C)n(C)nc3c2=O)cc1[S+]([O-])CC(F)(F)F (stereo not drawn) [Compound 214]	90%
Cc1cc(F)c(-n2cnc3cn(C)nc3c2=O)cc1[S+]([O-])CC(F)(F)F (stereo not drawn) [Compound 216]	100%
Cc1cc(F)c(-n2cnc3csc(C)c3c2=O)cc1SCC(F)(F)F [Compound 217]	90%
Cc1cc(F)c(-n2cnc3csc(C)c3c2=O)cc1[S+]([O-])CC(F)(F)F (stereo not drawn) [Compound 218]	90%
Cc1cc(F)c(-n2cnc3c(C)scc3c2=O)cc1SCC(F)(F)F [Compound 219]	100%
Cc1cc(F)c(-n2cnc3c(C)scc3c2=O)cc1[S+]([O-])CC(F)(F)F (stereo not drawn) [Compound 220]	90%
Cc1cc2ncn(-c3cc([S+]([O-])CC(F)(F)F)c(C)cc3F)c(=O)c2o1 (stereo not drawn) [Compound 222]	100%
